Peptide text beside a SMILES is read from it.
How the values were obtained:
[1] = Stability testing by HPLC / LC-MS; type: physicochemical
Procedure: Chromatographic analyses were performed on an analytical high-pressure liquid chromatography system (HPLC) with MassLynx software (Version 4.1). Runs were carried out on a Zorbax C3 column (5 µm, 150 mm × 4.6 mm) with a 1.0 mL/min flow rate. The mobile phase A was 0.1% trifluoroacetic acid in MilliQ water and mobile phase B was 0.1% trifluoroacetic acid in acetonitrile. Gradients started with mobile phase A at 75% and ran at a 1% ramp to 65% mobile phase B. Samples were diluted using 3:7 ACN:MilliQ water to a concentration of 1.0 mg/mL and then passed through a 0.22 μm syringe filter before injecting 30 μL of the sample. The column and autosampler were maintained at 40 °C and 25 °C, respectively. A Waters 2487 UV detector monitored 215 nm, and mass spectra were collected from 50 to 3000 AMU. The capillary voltage was 3.00 kV, cone voltage was 30.00 V, extractor voltage was 3.00 V, RF lens voltage was 0.1 V, source temperature was 100 °C, cone gas flow was 50.0 L/h, and desolvation gas flow was 500 L/h[30],[88] for the electrospray source.
[…] The stability of peptide samples was then measured using HPLC[87].

[2] = Ultracentrifugation pellet / solid-state NMR of assemblies; type: physicochemical; details: 10 mg/mL, 150,000 RCF, 30 minutes, 4 °C
Procedure: To experimentally validate E1:ESBP3 peptide mixtures, solid-state NMR experiments were pursued. ^13C solid-state NMR measurements were conducted using cross-polarization magic angle spinning (^1H-^13C CPMAS) to evaluate sample structural order and structural differences between samples. The peptides were not isotopically enriched, so the ^13C signal was from the 1% natural abundance for ^13C.
After peptide dissolution at 10 mg/mL, the samples were concentrated by ultracentrifugation for 30 minutes in Bruker 3.22 mm NMR rotors at 4 °C and 150,000 RCF in Ultra-clear tubes of SW-41 Ti swinging bucket rotor fitted onto a Beckman Optima XPN-100 centrifuge. A 11.75 T magnet Bruker Avance III HD 500 spectrometer (500 MHz, ^1H NMR Larmor frequency) equipped with a room temperature 3.2 mm Bruker Low-E ^1H/^13C/^15N NMR probe was used for measurements. ^13C chemical shift referencing was conducted using adamantane referenced to tetramethylsilane. 1D ^13C cross-polarization magic angle spinning (CPMAS) spectra were collected using the standard Bruker cp pulse sequence. A 10 kHz magic angle spinning speed was used for all samples. The channels frequency for the optimization of the Hartmann-Hahn condition for ^1H and ^13C are 500.133 MHz and 125.771 MHz, respectively. A recycle delay time of 4 seconds (d1) and dwell time of 5 μs (DW) were used. Acquisition time was set to 10.24 ms. […]

Structure (SMILES): CC[C@H](C)[C@H](NC(=O)[C@H](Cc1ccc(O)cc1)NC(=O)[C@@H](NC(=O)[C@H](CCCCN)NC(=O)[C@H](Cc1ccc(O)cc1)NC(=O)[C@H](CCC(N)=O)NC(=O)CNC(=O)[C@H](CCC(=O)O)NC(=O)[C@H](CC(C)C)NC(=O)[C@H](CO)NC(=O)[C@H](CC(C)C)NC(=O)[C@H](CO)NC(=O)[C@H](CC(C)C)NC(=O)[C@H](CO)NC(=O)[C@H](CC(C)C)NC(=O)[C@H](CO)NC(=O)[C@H](CC(C)C)NC(=O)[C@H](CO)NC(=O)[C@H](CC(C)C)NC(=O)[C@H](CO)NC(=O)[C@H](CCC(=O)O)NC(C)=O)[C@@H](C)O)C(=O)N[C@@H](CC(=O)O)C(=O)N[C@@H](CCCCN)C(=O)N[C@@H](CC(N)=O)C(=O)N[C@@H](CC(N)=O)C(=O)N[C@@H](Cc1c[nH]cn1)C(=O)N[C@@H](Cc1ccc(O)cc1)C(=O)N[C@@H](C)C(=O)N[C@@H](CCC(=O)O)C(=O)N[C@@H](CC(=O)O)C(=O)N[C@@H](CCC(=O)O)C(=O)N[C@@H](CCCNC(=N)N)C(=O)N[C@@H](Cc1ccc(O)cc1)C(=O)N[C@@H](CCCCN)C(N)=O [ESBP3] (Ac-ESLSLSLSLSLSLEGQYKTYIDKNNHYAEDERYK-NH2)
- stability of lyophilized peptide, in words ([1]; -20 °C, 4 °C, 25 °C and 37°C over 10 weeks, HPLC/LC-MS): exceptional
- stability, in words ([1]; lyophilized form and in formulation at a variety of temperatures over 12 weeks, HPLC): excellent stability
- degradation in aqueous formulation, in words ([1]; over 10 weeks, LC-MS): minimal
- ultracentrifuge pellet (assembly into nanofibers) [2]: no pellet
